The values that follow come from ChEMBL document CHEMBL1201862, “PubChem BioAssay data set” (2004).

Assay [1] deals with Bcl-2-like protein 10 (Homo sapiens, UniProt Q9HD36). As to the kind of experiment: Bcl-B/TR3 peptide binding disruption – biochemical, fluorescence polarization, FITC-TR3 peptide, selectivity assay for Bfl-1 inhibitor project, primary screen (AID 748).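 Note: fluorescence polarization from a fluorescein-labelled TR3 peptide binding purified Bcl-B.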 A general note: In fluorescence polarisation assays a small probe gives low polarisation when free and higher when bound to something large.
Chain of Bcl-2-like protein 10 (Q9HD36 whole entry): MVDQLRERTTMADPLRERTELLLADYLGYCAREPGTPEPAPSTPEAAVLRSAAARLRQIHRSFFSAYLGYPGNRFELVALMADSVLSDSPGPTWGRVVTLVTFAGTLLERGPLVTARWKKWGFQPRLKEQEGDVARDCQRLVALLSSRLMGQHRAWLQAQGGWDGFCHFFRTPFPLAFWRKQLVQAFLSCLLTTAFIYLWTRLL

Assay [2] has as its target Galanin receptor type 2 (Homo sapiens, UniProt O43603). As to the kind of experiment: Dose Response cell-based high-throughput screening assay to identify antagonists of galanin receptor 2 (GALR2). [Related pubchem assays: 828, 866 ]. Format: functional.
Assay [3] is described as follows: HEK-293T cell viability reduction – luminescence, B-cell screen hits, cytotoxicity control for BCR NF-kB inhibitor project, dose response (AID 489021).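 Note: HEK-293T cells carrying an NF-kB luciferase reporter; cells exposed to compound for about 14 hours before viability readout.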 Type of assay: functional, cell-based.
Assay [4] deals with INS1. Kind of assay: INS-1E survival protection against cytokine death – cell-based, luminescence, retest, dose response (AID 449756).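 Note: cell death triggered by IL-1 beta plus TNF-alpha plus IFN-gamma mixture; protective hits raise ATP signal compared with cytokine alone wells.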 Format: functional. Particulars: Rattus norvegicus.
Assay [5] has as its target T1, Galanin receptor type 3 (Homo sapiens, UniProt O60755).
T1 sequence (O60755 whole entry): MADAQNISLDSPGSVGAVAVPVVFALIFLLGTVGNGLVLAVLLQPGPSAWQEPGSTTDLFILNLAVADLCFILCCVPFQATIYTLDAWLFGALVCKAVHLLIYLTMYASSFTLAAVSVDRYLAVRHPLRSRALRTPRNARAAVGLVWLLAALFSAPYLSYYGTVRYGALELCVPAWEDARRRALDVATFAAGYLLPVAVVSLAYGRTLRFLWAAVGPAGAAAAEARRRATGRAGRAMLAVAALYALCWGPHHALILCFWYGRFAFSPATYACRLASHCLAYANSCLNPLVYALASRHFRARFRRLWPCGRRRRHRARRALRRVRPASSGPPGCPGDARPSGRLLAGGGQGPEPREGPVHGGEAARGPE
Kind of assay: Fluorescence-based cell-based primary high throughput dose response assay to identify antagonists of the Galanin Receptor 3 (GalR3). Format: functional.

Assay [6] can be described thus: cells. Format: functional, cell-based. Particulars: HEK-CNG.
Assay [7] deals with Protein Rev (Human immunodeficiency virus type 1 group M subtype B (isolate HXB2)(HIV-1), UniProt P04618). Kind of assay: blockers of HIV Rev/RRE RNA complex – biochemical, fluorescence polarization, HIV-1, dose response (AID 434976). More on the design: species or system Human immunodeficiency virus 1.
Chain of Protein Rev (P04618 whole entry): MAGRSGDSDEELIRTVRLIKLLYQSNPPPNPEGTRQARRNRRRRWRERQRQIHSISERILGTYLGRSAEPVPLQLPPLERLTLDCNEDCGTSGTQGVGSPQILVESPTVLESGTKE
Assay [8] addresses Female germline-specific tumor suppressor gld-1 (Caenorhabditis elegans, UniProt Q17339). Kind of assay: blockers of GLD-1/TGE RNA complex formation – biochemical, fluorescence polarization, C. elegans, dose response (AID 2802).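 Note: fluorescence polarization of labeled TGE RNA bound by purified gld-1 protein.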
In assay [9] the target is Intestinal-type alkaline phosphatase (Homo sapiens, UniProt P09923). As to the kind of experiment: Dose Response confirmation of uHTS hits from a small molecule inhibitors of human intestinal alkaline phosphatase via a luminescent assay. [Related pubchem assays (depositor defined):AID2544, AID2574]. Type of assay: functional.
Chain of Intestinal-type alkaline phosphatase (P09923 whole entry): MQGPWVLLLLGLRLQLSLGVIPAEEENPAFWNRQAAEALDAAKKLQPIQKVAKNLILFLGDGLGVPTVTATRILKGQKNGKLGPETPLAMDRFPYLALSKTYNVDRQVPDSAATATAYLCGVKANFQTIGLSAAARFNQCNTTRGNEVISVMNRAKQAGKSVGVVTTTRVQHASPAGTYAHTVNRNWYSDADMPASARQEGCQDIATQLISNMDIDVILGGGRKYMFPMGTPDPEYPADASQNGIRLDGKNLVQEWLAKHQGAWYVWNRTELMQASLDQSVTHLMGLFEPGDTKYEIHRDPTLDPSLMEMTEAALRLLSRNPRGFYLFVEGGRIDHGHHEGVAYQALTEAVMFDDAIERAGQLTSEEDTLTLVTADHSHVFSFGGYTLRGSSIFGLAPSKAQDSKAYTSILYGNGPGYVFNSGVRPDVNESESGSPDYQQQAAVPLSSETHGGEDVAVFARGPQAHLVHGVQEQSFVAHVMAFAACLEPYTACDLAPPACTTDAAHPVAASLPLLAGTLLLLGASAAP
Assay [10] deals with Genome polyprotein (dengue virus type 2, UniProt P29990). As to the kind of experiment: flavivirus cap methylation enzyme inhibition – biochemical, confirmation dose response, primary screen (AID 588689). Format: functional.
Chain of Genome polyprotein (P29990 2492-3391 limits assumed): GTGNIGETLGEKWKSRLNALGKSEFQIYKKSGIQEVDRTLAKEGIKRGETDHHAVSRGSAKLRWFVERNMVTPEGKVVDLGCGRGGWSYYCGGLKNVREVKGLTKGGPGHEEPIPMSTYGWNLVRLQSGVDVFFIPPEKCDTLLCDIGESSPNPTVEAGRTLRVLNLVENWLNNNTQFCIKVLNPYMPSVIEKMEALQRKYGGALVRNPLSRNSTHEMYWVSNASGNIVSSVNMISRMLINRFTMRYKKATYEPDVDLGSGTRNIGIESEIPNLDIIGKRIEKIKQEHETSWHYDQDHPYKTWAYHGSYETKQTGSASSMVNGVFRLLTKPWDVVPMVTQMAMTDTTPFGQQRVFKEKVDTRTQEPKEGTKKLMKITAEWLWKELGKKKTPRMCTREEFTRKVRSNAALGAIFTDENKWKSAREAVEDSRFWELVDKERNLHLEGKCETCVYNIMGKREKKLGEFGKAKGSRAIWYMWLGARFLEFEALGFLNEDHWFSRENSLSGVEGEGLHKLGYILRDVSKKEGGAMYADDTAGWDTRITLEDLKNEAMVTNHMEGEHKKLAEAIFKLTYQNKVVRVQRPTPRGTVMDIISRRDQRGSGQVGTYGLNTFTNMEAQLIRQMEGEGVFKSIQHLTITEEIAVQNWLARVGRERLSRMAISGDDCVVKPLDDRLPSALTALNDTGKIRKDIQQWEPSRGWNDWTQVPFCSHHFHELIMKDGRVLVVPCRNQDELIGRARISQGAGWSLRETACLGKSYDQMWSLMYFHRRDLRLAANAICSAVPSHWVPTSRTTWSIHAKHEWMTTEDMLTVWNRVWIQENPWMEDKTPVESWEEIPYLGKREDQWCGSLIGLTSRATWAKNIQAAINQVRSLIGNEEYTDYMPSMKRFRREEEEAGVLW
Assay [11] concerns the target T2, Corticotropin-releasing factor receptor 2/Corticotropin-releasing factor-binding protein (Homo sapiens, UniProt P24387+Q13324).
T2 sequence (Q13324 whole entry): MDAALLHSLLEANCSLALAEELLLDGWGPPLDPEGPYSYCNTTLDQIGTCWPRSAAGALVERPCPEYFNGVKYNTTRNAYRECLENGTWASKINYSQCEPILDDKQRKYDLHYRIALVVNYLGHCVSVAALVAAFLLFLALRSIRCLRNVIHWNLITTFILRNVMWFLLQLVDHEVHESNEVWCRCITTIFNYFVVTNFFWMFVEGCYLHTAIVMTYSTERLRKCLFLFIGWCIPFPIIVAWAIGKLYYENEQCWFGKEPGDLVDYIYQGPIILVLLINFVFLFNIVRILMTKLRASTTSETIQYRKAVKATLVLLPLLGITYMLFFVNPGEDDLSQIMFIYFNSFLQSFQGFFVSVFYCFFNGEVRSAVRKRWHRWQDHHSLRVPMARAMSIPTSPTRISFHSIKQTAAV
T2 sequence (P24387 whole entry): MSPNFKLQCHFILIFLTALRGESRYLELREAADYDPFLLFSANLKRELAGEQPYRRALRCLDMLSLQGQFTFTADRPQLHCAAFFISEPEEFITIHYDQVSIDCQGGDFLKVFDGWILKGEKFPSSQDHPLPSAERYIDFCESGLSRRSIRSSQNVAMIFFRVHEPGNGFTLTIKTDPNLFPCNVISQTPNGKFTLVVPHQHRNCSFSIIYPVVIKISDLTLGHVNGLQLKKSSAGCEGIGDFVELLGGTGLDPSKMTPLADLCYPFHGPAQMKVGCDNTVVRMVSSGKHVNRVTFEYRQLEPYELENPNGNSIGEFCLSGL
Kind of assay: activators of CRF receptor 2 with binding protein – uHTS hits, confirmation (AID 602473). The following applies: read-out: EC50_Mean. Type of assay: functional.

The target of assay [12] is NACHT, LRR and PYD domains-containing protein 3 (Homo sapiens, UniProt Q96P20). Kind of assay: NALP3 inhibitors in yeast, dose response, luminescent (AID 488799). Format: functional.
Chain of NACHT, LRR and PYD domains-containing protein 3 (Q96P20 whole entry, the tested form may be a part): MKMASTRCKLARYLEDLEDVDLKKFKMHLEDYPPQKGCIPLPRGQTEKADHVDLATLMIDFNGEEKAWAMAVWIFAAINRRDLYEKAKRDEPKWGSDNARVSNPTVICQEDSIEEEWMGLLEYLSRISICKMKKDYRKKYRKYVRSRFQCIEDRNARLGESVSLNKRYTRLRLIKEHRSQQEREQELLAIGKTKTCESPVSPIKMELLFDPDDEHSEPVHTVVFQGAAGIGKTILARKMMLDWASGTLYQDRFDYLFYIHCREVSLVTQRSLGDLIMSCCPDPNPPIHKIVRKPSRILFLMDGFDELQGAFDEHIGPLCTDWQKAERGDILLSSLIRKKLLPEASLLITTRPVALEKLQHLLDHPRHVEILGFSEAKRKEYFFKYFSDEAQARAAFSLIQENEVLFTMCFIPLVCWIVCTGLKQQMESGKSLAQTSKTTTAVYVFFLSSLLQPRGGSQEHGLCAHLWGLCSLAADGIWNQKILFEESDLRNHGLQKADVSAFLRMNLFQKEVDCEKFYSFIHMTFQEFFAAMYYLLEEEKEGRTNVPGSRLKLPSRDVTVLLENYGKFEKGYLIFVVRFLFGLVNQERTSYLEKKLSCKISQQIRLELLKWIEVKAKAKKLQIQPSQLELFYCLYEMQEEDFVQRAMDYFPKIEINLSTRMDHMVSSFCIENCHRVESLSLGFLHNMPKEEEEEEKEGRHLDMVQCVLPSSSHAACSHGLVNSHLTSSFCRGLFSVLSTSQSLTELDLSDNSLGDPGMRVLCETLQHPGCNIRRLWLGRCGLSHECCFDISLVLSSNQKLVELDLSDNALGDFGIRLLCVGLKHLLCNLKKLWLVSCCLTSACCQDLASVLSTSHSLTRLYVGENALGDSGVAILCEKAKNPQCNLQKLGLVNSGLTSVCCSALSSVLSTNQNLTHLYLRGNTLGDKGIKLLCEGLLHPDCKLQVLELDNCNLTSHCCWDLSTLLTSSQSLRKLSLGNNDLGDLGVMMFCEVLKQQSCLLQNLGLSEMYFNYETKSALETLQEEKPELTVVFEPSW
Assay [13] has as its target Protein phosphatase methylesterase 1 (Homo sapiens, UniProt Q9Y570). Kind of assay: endogenous PME-1 and serine hydrolase inhibition – cell lysate, mouse brain cytosol, FP-rhodamine, gel ABPP, selectivity assay for PME-1 inhibitor project, dose response, panel member PME-1 Assay Panel member description: Inhibition of endogenously expressed PME-1 (AID 2366).

Activity calls are given as the source filed them.

Chain of Galanin receptor type 2 (O43603 whole entry): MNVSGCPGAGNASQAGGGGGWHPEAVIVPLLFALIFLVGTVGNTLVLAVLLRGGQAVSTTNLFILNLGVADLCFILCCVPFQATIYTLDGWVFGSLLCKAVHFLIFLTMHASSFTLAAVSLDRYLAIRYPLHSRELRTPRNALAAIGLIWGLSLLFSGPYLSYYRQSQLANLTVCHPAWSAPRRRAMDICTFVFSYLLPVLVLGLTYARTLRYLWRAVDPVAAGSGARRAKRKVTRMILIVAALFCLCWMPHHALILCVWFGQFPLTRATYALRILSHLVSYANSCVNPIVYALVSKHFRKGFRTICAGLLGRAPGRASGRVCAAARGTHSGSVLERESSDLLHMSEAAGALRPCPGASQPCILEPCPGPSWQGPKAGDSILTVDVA
Chain of Female germline-specific tumor suppressor gld-1 (Q17339 whole entry): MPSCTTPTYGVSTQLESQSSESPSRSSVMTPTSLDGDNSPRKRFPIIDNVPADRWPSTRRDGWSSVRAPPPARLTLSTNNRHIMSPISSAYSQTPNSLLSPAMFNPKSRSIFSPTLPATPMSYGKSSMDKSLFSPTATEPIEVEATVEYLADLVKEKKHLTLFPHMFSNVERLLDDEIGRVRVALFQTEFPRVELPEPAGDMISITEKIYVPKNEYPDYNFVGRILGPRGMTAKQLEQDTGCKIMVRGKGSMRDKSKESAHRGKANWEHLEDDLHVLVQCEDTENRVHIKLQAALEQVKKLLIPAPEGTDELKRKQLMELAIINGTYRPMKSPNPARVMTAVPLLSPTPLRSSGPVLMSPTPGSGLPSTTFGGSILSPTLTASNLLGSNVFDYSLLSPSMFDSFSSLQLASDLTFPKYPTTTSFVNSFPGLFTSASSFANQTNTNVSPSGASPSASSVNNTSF
Chain of Protein phosphatase methylesterase 1 (Q9Y570 whole entry): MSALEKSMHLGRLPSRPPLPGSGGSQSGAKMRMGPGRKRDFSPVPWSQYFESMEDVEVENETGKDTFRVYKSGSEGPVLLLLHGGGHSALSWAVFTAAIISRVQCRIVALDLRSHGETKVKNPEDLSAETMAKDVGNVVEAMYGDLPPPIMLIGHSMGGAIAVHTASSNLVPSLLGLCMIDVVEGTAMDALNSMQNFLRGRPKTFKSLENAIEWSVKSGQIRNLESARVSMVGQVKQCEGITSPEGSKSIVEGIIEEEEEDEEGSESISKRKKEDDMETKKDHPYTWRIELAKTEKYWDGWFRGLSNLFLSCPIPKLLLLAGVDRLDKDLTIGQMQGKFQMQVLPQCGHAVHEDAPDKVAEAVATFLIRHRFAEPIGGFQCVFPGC

`c1ccc(-c2nn3c(Cn4nnc5ccccc54)nnc3s2)nc1`: in assay [1], the IC50 was 34.6 µM (active).
With `O=S(=O)(NCc1ccncc1)c1ccc(Br)s1`, the figures for the IC50 in assay [2], in assay [3] and in [5] were > 42 µM (not active), > 80 µM (inactive) and 2.06 µM (active), respectively. Besides, the AC50 in [4] is 2.91 µM (active). Besides, in assay [6], the EC50 was > 29.9 µM (inactive).
`COc1ccc2nc(N3CCC(O)CC3)c(C#N)cc2c1`: the IC50 in assay [7] was 67.6 µM (not active); in assay [8] it was 24.9 µM (inactive); in assay [9] it was > 100 µM (inactive); in [10], 59.2 µM (active). Moreover, the EC50 in assay [11] was > 53 µM (inactive).
For the molecule `O=C(Nc1scc(-c2ccccc2)c1C(=O)O)c1ccc(F)cc1`, in assay [12], the IC50 is 10.3 µM (active).
Take `Cc1noc(C)c1S(=O)(=O)n1cccc1/C=C(\C#N)S(C)(=O)=O`: in assay [13], the IC50 is > 20 µM (inactive).

A word on the IC50: it is the concentration at which inhibition is half-maximal. The term AC50 denotes the concentration at which the activity in the assay is half-maximal.
